{"source": "patent US20210002725A1", "about": "“METHODS FOR THE DIAGNOSIS OF METABOLIC DISORDERS USING EPIMETABOLIC SHIFTERS, MULTIDIMENSIONAL INTRACELLULAR MOLECULES, OR ENVIRONMENTAL INFLUENCES” (Berg LLC, priority 2009, published 2021)", "key": {"variety of cell types": {"tested_on": "variety of cell types", "experiment": "Western blot analysis (Bcl-xL, Vimentin, oxidative phosphorylation complexes, mitochondrial membrane integrity proteins)", "format": "cell-based", "settings": "50 or 100 μM Q10", "procedure": "Approximately 50 μg of protein were assayed per sample by immunoblotting. All treatments were run in triplicate with controls. […] The primary antibodies were incubated overnight at 4 degrees C. in a 5% BSA and TBST solution. Secondary antibodies were incubated for one hour at 4 degrees. All antibodies were purchased from Cell Signaling Technology. Antibodies were used at a ratio of 1:1000, with the exception of βActin at a ratio of 1:5000. Blots were developed and results were quantified using the NIH Java based densitometer analysis software Image J. All blots were also probed for and normalized to their respective βActin expression.\nThe first experiment processed and evaluated by Western blot and 2-D gel electrophoresis was carried out on the skin cancer cell line SKMEL-28.\nA variety of cell types were evaluated by Western blot analysis against an antibody for Bcl-xL (FIG. 14), an antibody for Vimentin (FIG. 15), a series of antibodies for mitochondrial oxidative phosphorylation function (FIGS. 16-21) and against a series of antibodies related to mitochondrial membrane integrity (FIGS. 22-27)."}, "[1]": {"tested_on": "HepG2 (liver cancer) cells", "experiment": "Real-time PCR Diabetes Array", "format": "cell-based", "settings": "for genes regulated in the Diabetes Arrays: 100 μM", "procedure": "The treatment was initiated on 1×10^5 cells per well, following the procedure utilized in the PaCa2 cells (above, Examples 9-11). However, the total amount of RNA that was extracted from these samples was lower than expected. Reverse transcription is normally done using 1 μg of total RNA (determined by measurement at 260 nm)."}, "[2]": {"tested_on": "Lactate Dehydrogenase (LDH)", "experiment": "Western blot of Lactate Dehydrogenase levels in cells treated with Coenzyme Q10", "format": "cell-based, human", "settings": "HepG2, 5 g, 24 h, 50 μM", "procedure": "The samples were processed and run on a 4-12% Bis-Tris Novex NuPAGE gel as described above. The gels were run, transferred and stained essentially as described above.\nAfter transfer each blot was dried for 15-20 minutes, activated with methanol for 5 seconds, washed with water for 5 minutes, and TBST for 15 minutes. The blots were blocked for 1 hour with 5% blocking reagent in TBS-T at room temperature and then washed 3 times with TBS-T (1×-15′; 2×5′ each) and probed with the primary antibody for Lactate Dehydrogenase (abcam ab2101; polyclonal) in 5% BSA (at 1:1000 dilutions) by incubation overnight at 4 deg C. with shaking. After the overnight incubation with primary antibody for Lactate Dehydrogenase, the blots were washed 3 times with TBS-T (1×-15′; 2×5′ each) and probed with the secondary antibody (rabbit antigoat; 1:10,000 dilution) for 1 h at room temperature. After 1 h of incubation with secondary antibodies, the blots were washed 3 times with TBS-T (1×-15′; 2×5′ each) and then incubated with ECF reagent for 5 mins and then each blot scanned with 5100 Fuji Laser scanner at 25 uM resolution, 16 bit, green laser, at 400V and at 500 V. […]\nThe levels of LDH and PDH were determined by probing the blots successively with primary antibodies for LDH and PDH, essentially as described above. […]"}, "HK-2 cells": {"tested_on": "HK-2 cells", "experiment": "Diabetes PCR array in cell model for diabetes", "format": "cell-based, human", "procedure": "The HK-2 and HASMC cells are normally maintained in culture at 5.5 mM glucose, which is a concentration that corresponds to a range considered normal in human blood. However, in order to simulate a diabetic environment, both cell lines were subsequently maintained at 22 mM glucose, which corresponds to the range observed in human blood associated with chronic hyperglycemia. The cells were subsequently allowed to propagate over 3 passages so that the intracellular regulation processes were functionally adapted to mimic a diabetic state. The choice of cell line was based on the physiologic influence of diabetes on renal dysfunction and progression to end-stage renal disease (ESRD) in addition to the progressive pathophysiology of a compromised cardiovascular function.\nThe Diabetes PCR array (SABiosciences) offers a screen for 84 genes simultaneously.\nA stringent analysis of the Real time PCR data of the HK-2 samples on the Diabetes Arrays (Cat #PAHS-023E, SABiosciences Frederick Md.) was made to exclude all results where gene regulation was not at least a two-fold regulation over HK-2 normal untreated cells with a p value of less than 0.05."}}, "data": [{"smiles": "COC1=C(OC)C(=O)C(C/C=C(\\C)CC/C=C(\\C)CC/C=C(\\C)CC/C=C(\\C)CC/C=C(\\C)CC/C=C(\\C)CC/C=C(\\C)CC/C=C(\\C)CC/C=C(\\C)CCC=C(C)C)=C(C)C1=O", "note": "[Q10, Coenzyme Q10]", "values": [{"measurement": "levels of examined proteins (Western blot)", "setting": "variety of cell types", "result": "several of the examined proteins were upregulated or downregulated"}, {"measurement": "PPARGC1A downregulation", "setting": "[1]; 100 μM Q10, 16 hours", "result": "approximately 20 fold"}, {"measurement": "PRKAA1 downregulation", "setting": "[1]; 100 μM Q10, 16 hours", "result": "~6", "unit": "fold"}, {"measurement": "SNAP25 downregulation", "setting": "[1]; 100 μM Q10, 16 hours", "result": "~5", "unit": "fold"}, {"measurement": "PPARGC1A regulation", "setting": "[1]; 100 μM Q10, 48 hours", "result": "normalized or were slightly upregulated"}, {"measurement": "PRKAA1 regulation", "setting": "[1]; 100 μM Q10, 48 hours", "result": "normalized or were slightly upregulated"}, {"measurement": "SNAP25 downregulation", "setting": "[1]; 100 μM Q10, 48 hours", "result": "approximately 2 fold"}, {"measurement": "genes regulated in the Diabetes Arrays", "setting": "[1]; PPARGC1A gene", "result": "PPARGC1A"}, {"measurement": "genes regulated in the Diabetes Arrays", "setting": "[1]; PRKAA1 gene", "result": "PRKAA1"}, {"measurement": "genes regulated in the Diabetes Arrays", "setting": "[1]; SNAP25 gene", "result": "SNAP25"}, {"measurement": "Lactate Dehydrogenase Normalized Volume", "setting": "[2]", "result": 7900}, {"measurement": "CEACAM1 RNA transcript", "setting": "HK-2 cells; HK2(H) cells at 22 mM glucose, particularly 100 μM Coenzyme Q10", "result": "highly upregulated"}, {"measurement": "insulin receptor (INSR) expression", "setting": "HK-2 cells; diabetic HK-2 cells", "result": "increase in expression"}]}]}
